The target in this assay is T1, Recombinant human His6-tagged galectin-3 (Gal-3) (Homo sapiens, UniProt P17931).
T1 construct: gene LGALS3; His6-tagged Gal-3 (tag kept), expressed in E. coli Rosetta 2 (DE3) pLysS, 28,023 Da calculated, monomer in solution
The assay is described as follows: competitive ELISA, Gal-3 binding to immobilized asialofetuin. As to conditions: 6.5 µM Gal-3, EPBS buffer pH 7.5, 2 mM EDTA, 2 h; competitive with asialofetuin. On the technique in general: In an ELISA, binding on a coated surface is turned into a signal by an enzyme label.

SMILES strings stand for the structures.

T1 sequence (P17931 2-250): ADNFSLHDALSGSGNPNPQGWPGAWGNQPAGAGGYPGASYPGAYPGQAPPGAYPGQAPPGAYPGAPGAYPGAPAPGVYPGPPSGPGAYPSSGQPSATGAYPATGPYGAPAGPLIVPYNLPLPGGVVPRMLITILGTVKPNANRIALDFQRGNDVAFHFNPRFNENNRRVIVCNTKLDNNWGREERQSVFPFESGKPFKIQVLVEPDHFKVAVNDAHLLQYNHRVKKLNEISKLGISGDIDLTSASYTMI

For the molecule `CC(=O)N[C@H]1C(O)O[C@H](CO)[C@@H](O[C@@H]2O[C@H](CO)[C@H](O)[C@H](O)[C@H]2O)[C@@H]1O` (some centres unmarked) [LacNAc], the IC50 is 53 ± 16 µM.

For the molecule `CC(=O)N[C@H]1[C@H](O[C@H]2[C@H](O)[C@@H](NC(C)=O)C(O)O[C@@H]2CO)O[C@H](CO)[C@H](O)[C@@H]1O` (stereo partly drawn) [compound 5, 2-acetamido-2-deoxy-β-D-galactopyranosyl-(1 → 4)-2-acetamido-2-deoxy-D-glucopyranose], the IC50 turned out to be 64 ± 20 µM.

The IC50 is the concentration at which inhibition is half-maximal.

The values above are taken from paper PMC6146777, “Biocompatible glyconanomaterials based on HPMA-copolymer for specific targeting of galectin-3” (Journal of Nanobiotechnology, 2018).
